Marks after values point to notes of the source that are not given here.
How the values were obtained:
[1] = target: T1, epithelial sodium channel (Canis lupus familiaris, UniProt A0A8I3MKE6+A0A8I3Q679+Q95165); test: Inhibition of short-circuit current (ISC) in airway epithelial monolayers in Ussing chambers; format: cell-based, canine; conditions: canine bronchial epithelial cells, short-circuit current; read-out: Potency of Sodium Channel Blockade IC50
T1 construct: endogenous in cells; host or cells: primary canine bronchial epithelial cells cultured at air-liquid interface
T1 sequence (A0A8I3Q679 1-649): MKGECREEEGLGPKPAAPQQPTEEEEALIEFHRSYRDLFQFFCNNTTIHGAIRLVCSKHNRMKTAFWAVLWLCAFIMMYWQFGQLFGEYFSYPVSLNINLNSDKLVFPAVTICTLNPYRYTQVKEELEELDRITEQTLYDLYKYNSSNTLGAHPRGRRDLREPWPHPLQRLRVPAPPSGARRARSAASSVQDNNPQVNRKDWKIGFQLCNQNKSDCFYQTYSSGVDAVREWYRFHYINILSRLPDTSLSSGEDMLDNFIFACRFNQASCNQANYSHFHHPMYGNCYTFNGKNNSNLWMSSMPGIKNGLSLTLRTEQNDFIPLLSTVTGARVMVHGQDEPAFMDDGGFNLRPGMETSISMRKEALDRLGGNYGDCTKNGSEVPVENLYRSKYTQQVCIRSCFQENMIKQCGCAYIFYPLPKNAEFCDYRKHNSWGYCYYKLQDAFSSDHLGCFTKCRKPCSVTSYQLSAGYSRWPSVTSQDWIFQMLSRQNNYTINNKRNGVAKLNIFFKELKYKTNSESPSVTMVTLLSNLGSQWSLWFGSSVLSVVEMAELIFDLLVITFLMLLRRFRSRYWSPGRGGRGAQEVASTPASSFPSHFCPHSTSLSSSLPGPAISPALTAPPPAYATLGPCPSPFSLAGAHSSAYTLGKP
T1 sequence (Q95165 1-641): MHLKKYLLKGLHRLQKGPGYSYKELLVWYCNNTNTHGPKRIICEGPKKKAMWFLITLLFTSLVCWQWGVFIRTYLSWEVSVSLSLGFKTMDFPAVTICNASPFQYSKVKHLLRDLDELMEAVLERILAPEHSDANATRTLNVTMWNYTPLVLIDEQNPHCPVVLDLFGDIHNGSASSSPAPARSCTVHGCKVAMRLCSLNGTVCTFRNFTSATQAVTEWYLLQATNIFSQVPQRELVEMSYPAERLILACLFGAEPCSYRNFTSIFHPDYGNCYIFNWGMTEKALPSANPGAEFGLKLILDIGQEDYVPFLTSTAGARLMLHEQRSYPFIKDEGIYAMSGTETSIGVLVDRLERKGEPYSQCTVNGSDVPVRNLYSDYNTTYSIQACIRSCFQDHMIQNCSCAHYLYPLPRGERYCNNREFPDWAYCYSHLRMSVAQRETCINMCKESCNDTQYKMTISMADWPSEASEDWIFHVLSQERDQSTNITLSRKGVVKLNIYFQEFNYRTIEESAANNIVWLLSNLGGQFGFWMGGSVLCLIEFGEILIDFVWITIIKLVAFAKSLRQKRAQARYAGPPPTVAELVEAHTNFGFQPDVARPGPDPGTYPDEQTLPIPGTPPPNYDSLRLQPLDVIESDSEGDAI
T1 sequence (A0A8I3MKE6 1-646): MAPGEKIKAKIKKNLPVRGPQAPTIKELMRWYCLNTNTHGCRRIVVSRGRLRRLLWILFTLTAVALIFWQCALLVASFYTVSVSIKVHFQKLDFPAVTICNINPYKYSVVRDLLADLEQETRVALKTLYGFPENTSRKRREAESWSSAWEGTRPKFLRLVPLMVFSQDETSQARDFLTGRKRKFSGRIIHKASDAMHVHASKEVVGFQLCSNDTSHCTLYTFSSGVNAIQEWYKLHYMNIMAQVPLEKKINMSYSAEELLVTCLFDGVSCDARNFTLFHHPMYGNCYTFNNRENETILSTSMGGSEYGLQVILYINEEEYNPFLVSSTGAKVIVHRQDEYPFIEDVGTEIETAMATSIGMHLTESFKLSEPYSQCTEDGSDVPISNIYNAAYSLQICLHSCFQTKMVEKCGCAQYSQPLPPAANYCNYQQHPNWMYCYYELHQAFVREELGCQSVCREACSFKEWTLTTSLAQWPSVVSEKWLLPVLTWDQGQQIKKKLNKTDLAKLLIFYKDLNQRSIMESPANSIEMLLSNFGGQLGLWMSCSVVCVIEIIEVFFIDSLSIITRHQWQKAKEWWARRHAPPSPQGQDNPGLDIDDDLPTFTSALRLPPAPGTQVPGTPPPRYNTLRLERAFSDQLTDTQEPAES
Protocol: One assay used to assess mechanism of action and/or potency of the compounds of the present invention involves the determination of lumenal drug inhibition of airway epithelial sodium currents measured under short circuit current (ISC) using airway epithelial monolayers mounted in Using chambers. Cells obtained from freshly excised human, dog, sheep or rodent airways are seeded onto porous 0.4 micron Snapwelff Inserts (CoStar), cultured at air-liquid interface (ALI) conditions in hormonally defined media, and assayed for sodium transport activity (ISC) while bathed in Krebs Bicarbonate Ringer (KBR) in Using chambers. All test drug additions are to the lumenal bath with half-log dose addition protocols (from 1×10^−11 M to 3×10^−5 M), and the cumulative change in ISC (inhibition) recorded. All drugs are prepared in dimethyl sulfoxide as stock solutions at a concentration of 1×10^−2 M and stored at −20° C. […] After the maximal concentration ([…]) is administered, the lumenal bath is exchanged three times with fresh drug-free KBR solution, and the resultant ISC measured after each wash for approximately 5 minutes in duration. Reversibility is defined as the percent return to the baseline value for sodium current after the third wash. All data from the voltage clamps are collected via a computer interface and analyzed off-line.
Dose-effect relationships for all compounds are considered and analyzed by the Prism 3.0 program.

[2] = system: Sheep MCC; test: Mucociliary clearance (MCC) studies in sheep; format: in vivo; conditions: sheep, 0.24 nmol/kg (3 μM); for effect on MCC compared to vehicle: 4 h post-dose; for AUC (% Cl-h) / Initial Slope (4.0-4.5 h): aerosol, MCC at 4 h post-dose
Protocol: The animal model that has been used most often to measure changes in MCC is the sheep model. The effect of compounds for enhancing mucociliary clearance (MCC) can be measured using an in vivo model described by Sabater et al., Journal of Applied Physiology, 1999, pp. 2191-2196, incorporated herein by reference.
In these studies, adult sheep were restrained and nasally intubated with an endotracheal tube. Aerosolized test articles were administered over 10-15 minutes to sheep. Radiolabeled ^99mTc-sulfur colloid (TSC, 3.1 mg/mL; containing approximately 20 mCi) was then administered at a specified time four or eight hours after test article. The radiolabeled aerosol was administered through the endotracheal tube for about 5 minutes. The sheep were then extubated, and total radioactive counts in the lung were measured every 5 minutes for a 1-hour observation period. The rate of radiolabel clearance from the lung is representative of the MCC rate in the animal. The advantage of this system is that it closely simulates the human lung environment. The model also allows for the collection of simultaneous PK/PD information through plasma and urine sampling over the test period. There are also several techniques to measure the drug concentrations on the airway surface during the MCC measurements. These include the collection of exhaled breath condensates or a filter paper method to obtain ASL via bronchoscopy.
The ovine model described above was used to evaluate the in vivo effects (efficacy/durability) of aerosol-delivered test agent on MCC. Treatments consisting of either 4 mL of test agent or test agent in combination with HS were tested. To determine if combining HS with test agent enhanced MCC, HS was administered immediately following test agent administration. Test solutions were aerosolized using a Raindrop nebulizer at a flowrate of eight liters per minute and connected to a dosimetry system consisting of a solenoid valve and a source of compressed air (20 psi). The deposited dose of drug in sheep lungs after an aerosol administration using the Raindrop nebulizer is estimated to be 8-15% of the dose. Using a Raindrop nebulizer, radiolabeled TSC was administered over approximately 3 minutes either 4 or 8 hours after drug treatment to evaluate efficacy/durability. Radioactive counts were measured in a central region in the right lung at 5 min intervals for one hour with a gamma camera. Three methods of analysis were utilized, 1) initial rate of clearance (slope) over the first 30 min fitted using linear regression 2) area under the curve for % clearance over time over one hour, and 3) the maximum clearance obtained in one hour.

| IC50 [1] | SMILES | effect on MCC compared to vehicle [2] | AUC (% Cl-h) [2] | Initial Slope (4.0-4.5 h) [2] |
| --- | --- | --- | --- | --- |
| 0.0796 µM | N=C(NCCCCc1ccc(C[C@H](N)C(=O)O)c2ccccc12)NC(=O)c1nc(Cl)c(N)nc1N [Compound 16, (S)-2-amino-3-(4-(4-(3-(3,5-diamino-6-chloropyrazine-2-carbonyl)guanidino)butyl)naphthalen-1-yl)propanoic acid] |  |  |  |
| 0.047 µM | N=C(NCCCCc1ccc(C[C@H](N)C(=O)Nc2ccc(CCCCCCN(C[C@H](O)[C@@H](O)[C@H](O)[C@H](O)CO)C[C@H](O)[C@@H](O)[C@H](O)[C@H](O)CO)cc2)c2ccccc12)NC(=O)c1nc(Cl)c(N)nc1N [Compound 48, 3,5-diamino-N—(N-(4-(4-((S)-2-amino-3-(4-(6-(bis((2S,3R,4R,5R)-2,3,4,5,6-pentahydroxyhexyl)amino)hexyl)phenylamino)-3-oxopropyl)naphthalen-1-yl)butyl)carbamimidoyl)-6-chloropyrazine-2-carboxamide] | Similarly Enhance MCC Compared to Vehicle | 15.4* (2) % Cl-h | 29.8* (2) |
| 0.0074 µM | CCCCCCN(CCCc1ccc(NC(=O)[C@@H](N)Cc2ccc(CCCCNC(=N)NC(=O)c3nc(Cl)c(N)nc3N)c3ccccc23)cc1)C[C@H](O)[C@@H](O)[C@H](O)[C@H](O)CO [Compound 28, 3,5-diamino-N—(N-(4-(4-((S)-2-amino-3-(4-(3-(hexyl((2S,3R,4R,5R)-2,3,4,5,6-pentahydroxyhexyl)amino)propyl)phenylamino)-3-oxopropyl)naphthalen-1-yl)butyl)carbamimidoyl)-6-chloropyrazine-2-carboxamide] |  |  |  |
| 0.0737 µM | N=C(NCCCCc1ccc(C[C@H](N)C(=O)O)c2c1CCCC2)NC(=O)c1nc(Cl)c(N)nc1N [Compound 139, (S)-2-amino-3-(4-(4-(3-(3,5-diamino-6-chloropyrazine-2-carbonyl)guanidino)butyl)-5,6,7,8-tetrahydronaphthalen-1-yl)propanoic acid] |  |  |  |
| 0.0179 µM | CN(C)CCCc1ccc(NC(=O)[C@@H](N)Cc2ccc3cc(CCCCNC(=N)NC(=O)c4nc(Cl)c(N)nc4N)ccc3c2)cc1 [Compound 103, (S)-3,5-diamino-N—(N-(4-(6-(2-amino-3-(4-(3-(dimethylamino)propyl)phenylamino)-3-oxopropyl)naphthalen-2-yl)butyl)carbamimidoyl)-6-chloropyrazine-2-carboxamide] |  |  |  |
| 0.0155 µM | N=C(NCCCCc1ccc(C[C@H](N)C(=O)Nc2ccc(CCCCCCNC[C@H](O)[C@@H](O)[C@H](O)[C@H](O)CO)cc2)c2ccccc12)NC(=O)c1nc(Cl)c(N)nc1N [Compound 53, 3,5-diamino-N—(N-(4-(4-((S)-2-amino-3-oxo-3-(4-(6-((2S,3R,4R,5R)-2,3,4,5,6-pentahydroxyhexylamino)hexyl)phenylamino)propyl)naphthalen-1-yl)butyl)carbamimidoyl)-6-chloropyrazine-2-carboxamide] |  |  |  |
| 0.0076 µM | N=C(NCCCCc1ccc2cc(C[C@H](N)C(=O)Nc3ccc(CCCNC[C@H](O)[C@@H](O)[C@H](O)[C@H](O)CO)cc3)ccc2c1)NC(=O)c1nc(Cl)c(N)nc1N [Compound 99, 3,5-diamino-N—(N-(4-(6-((S)-2-amino-3-oxo-3-(4-(3-((2S,3R,4R,5R)-2,3,4,5,6-pentahydroxyhexylamino)propyl)phenylamino)propyl)naphthalen-2-yl)butyl)carbamimidoyl)-6-chloropyrazine-2-carboxamide] |  |  |  |
| 0.0023 µM | CCCCCCN(CCCc1ccc(NC(=O)[C@@H](N)Cc2ccc(CCCCNC(=N)NC(=O)c3nc(Cl)c(N)nc3N)c3c2CCCC3)cc1)C[C@H](O)[C@@H](O)[C@H](O)[C@H](O)CO [Compound 123, 3,5-diamino-N—(N-(4-(4-((S)-2-amino-3-(4-(3-(hexyl((2S,3R,4R,5R)-2,3,4,5,6-pentahydroxyhexyl)amino)propyl)phenylamino)-3-oxopropyl)-5,6,7,8-tetrahydronaphthalen-1-yl)butyl)carbamimidoyl)-6-chloropyrazine-2-carboxamide] | Similarly Enhance MCC Compared to Vehicle | 14.4* (2) % Cl-h | 29.2* (2) |
